This is an account of results in patent US20240425529A1, “BORIC ACID DERIVATIVE” (SHOUYAO HOLDINGS (BEIJING) CO., LTD., priority 2021, published 2024).

Structures are written as SMILES.

What is called AUC(0-inf) is total exposure, with the tail of the curve extrapolated. Lower therefore signals low exposure. A word on the Cmax: it is the peak of the concentration-time curve. Broadly, the Tmax is the time at which the peak concentration occurs. The half-life is the time in which the quantity being followed falls by half. A lower half-life goes with fast loss. For orientation: T/C means the result in the treated group divided by that in the control group, in per cent.

A short description of series [1]: Animal pharmacokinetic study in rats, single gavage. The settings on record: rat, po; male rats, single gavage 5 mg/kg, plasma. The class given is in vivo. The procedure: Three healthy adult male rats from Beijing Vital River Experimental animal Technology Co. Ltd were used for animal pharmacokinetic experiments. The compounds were suspended in 20% sulfobutyl ether-β-cyclodextrin (W/W/V) at a concentration of 1 mg/mL at a dosing volume of 5 mL/kg by single gavage at a dose of 5 mg/kg. Animals were fasted overnight before the experiment, from 10 hours before the administration to 4 hours after the administration. Blood was collected at 0.25, 0.5, 1, 2, 4, 6, 8, and 24 hours after the administration. The animals were anesthetized with isoflurane. About 0.4 mL of whole blood was collected from the orbital venous plexus using a glass blood collection tube and placed in a heparin anticoagulant tube. The sample was centrifuged at 4200 rpm for 5 min at 4° C. The plasma was transferred to a centrifuge tube and stored at −80° C. for later analysis. The plasma sample analysis used the acetonitrile protein precipitation method to extract the compound to be tested and internal standard (Warfarin or Propranolol) from rat plasma, and the extraction solution was analyzed by LC/MS/MS. The plasma concentration-time data of individual animals measured were analyzed using anon-compartmental model using the WinNonlin (version 5.2.1; Pharsight company) software, and the following pharmacokinetic parameters were obtained: maximum (peak) plasma drug concentration Cmax; Time to max Tmax; the area under the curve AUC0-inf of blood drug concentration-time from half-life T½ and extrapolation to infinite time.

Series [2] relates to multiple myeloma cells U266B1. As to the kind of experiment: In-vivo assay II: subcutaneous xenograft model of multiple myeloma cells U266B1 in mice. The note with it: NOG mice. Here is the method:
Evaluation assay of LMP7 Inhibitors in a subcutaneous xenograft model of multiple myeloma cells U266B1 in mice
Female NOG mice, week old: 6-8 weeks old, certificate No: SCXK(Jing) 2021-0006, purchased from Beijing Vital River Experimental Animal Technology Co. Ltd.
The specific method was that mice were housed in an SPF environment. Every 5 mice were housed in 1 cage. Animals were free to drink and eat and were adaptively raised for one week. Laboratory conditions: room temperature 18-24° C., relative humidity 40%-70%, ventilated with a ventilation fan, natural light source for 12 hours per day. Cages, bedding, drinking water, and feed were replaced twice a week, and the replaced cages and drinking water bottles were cleaned and then sterilized by steam under high pressure. Cages, room walls, and floors were cleaned twice a week with 84-disinfectant or bromogeramine.
U266b1 (China Center for Type Culture Collection, College of Life Sciences at Wuhan University) cells were cultured using RPMI-1640 medium supplemented with 20% fetal bovine serum and 1% Penicillin-Streptomycin at 37° C. in an atmosphere of 5% CO2 in the air. Cells were routinely sub-cultured twice weekly, and cells grown in the exponential growth phase were harvested and counted. Cell suspensions were mixed well at 1:1 in Matrigel™ (Corning Matrigel™ Normal Basement Membrane) for tumor cell inoculation.
Each mouse was subcutaneously injected with 0.1 ml of PBS-suspended U266B1 cell suspension (containing 1.0×10^7 cells, 50% Matrigel) at the axillary sites on both sides to establish a subcutaneous transplanted tumor model of multiple myeloma cells U266B1 in mice. […] Tumor diameter and body weight were measured 3 times per week during the experiment. […]
The study endpoints were tumor growth inhibition, maximum tumor burden (individual tumor size equal to 10% of body weight), and weight loss greater than 20% of body weight at the start of treatment. The tumor volume was calculated as V=0.5×a×b^2, where V is the tumor volume and a and b are the length and width of the tumor, respectively. […]

The mark [3] stands for this setting: 0.3 mg/kg orally once daily, Day 14.

In the case of `O=C(Nc1ccccn1)C(=O)N[C@@H](Cc1coc2ccccc12)B(O)O` [Ex. 12], in series [1], the AUC(0-inf) was 26500 ng·h/mL, the concentration peaked (Cmax) at 3930 ng/mL, the Tmax was determined as 0.58 h and the half-life was 14.7 h.
For `Cc1cnc(NC(=O)C(=O)N[C@@H](Cc2coc3ccccc23)B(O)O)s1` [Ex. 32, (R)-(2-(benzofuran-3-yl)-1-(2-oxo-2-((5-methylthiazol-2-yl)amino)acetamido)ethyl)boronic acid], in that order: 22200 ng·h/mL, 1090 ng/mL, 0.67 h and 25.3 h.
Taken in the same sequence, the figures for `O=C(Nc1nc2ccccc2s1)C(=O)N[C@@H](Cc1coc2ccccc12)B(O)O` [Ex. 27, (R)-(2-(benzofuran-3-yl)-1-(2-oxo-2-((benzo[d]thiazol-2-yl)amino)acetamido)ethyl)boronic acid] were 24200 ng·h/mL, 1910 ng/mL, 3.33 h and 5.17 h.
Taken in the same sequence, the figures for `O=C(Nc1cc(Cl)ccn1)C(=O)N[C@@H](Cc1coc2ccccc12)B(O)O` [Ex. 49, (R)-(2-(benzofuran-3-yl)-1-(2-oxo-2-((4-chloropyridin-2-yl)amino)acetamido)ethyl)boronic acid] were 25400 ng·h/mL, 1430 ng/mL, 0.92 h and 16.4 h.
`O=C(Nc1cnccn1)C(=O)N[C@@H](Cc1coc2ccccc12)B(O)O` [Ex. 9, (R)-(2-(benzofuran-3-yl)-1-(2-oxo-2-(pyrazin-2-ylamino)acetamido)ethyl) boronic acid]: in series [1], the AUC(0-inf) amounted to 38600 ng·h/mL, the Cmax came out at 3880 ng/mL, the time of peak concentration (Tmax) was 2.67 h and the half-life was 5.58 h. The “animal death or weight loss caused by the compound” value in series [2] (0.3 mg/kg orally once daily for 14 days) is “no animal death or weight loss”. Besides, in series [2] (setting [3]), the T/C is 9.76% and the “TGI (tumor growth inhibition rate)” value is given as 104.45%.
